According to PubChem BioAssay (NCI):
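Step 1: Grow cells in 96-well plates. Step 2: Expose to compound for 48 hours at 5 concentrations. Step 3: Interpolate endpoints linearly; if unreached, use highest concentration. Here, GI50 denotes the concentration required for 50% inhibition of growth. TGI: total growth inhibition.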

What was measured:
Experiment in all cases: NCI anticancer screen, dose series, 48 h
[1] = system: OVCAR-3 ovarian
[2] = system: MOLT-4 leukemia
[3] = system: NCI-H522 lung
[4] = system: ACHN renal
[5] = system: NCI-H23 lung
[6] = system: NCI-H460 lung
[7] = system: RXF 393 renal
[8] = system: SW-620 colon
[9] = system: SNB-19 CNS
[10] = system: BT-549 breast
[11] = system: HCT-15 colon
[12] = system: SK-MEL-2 melanoma
[13] = system: MDA-MB-231 breast
[14] = system: 786-0 renal
[15] = system: HS 578T breast
[16] = system: LOX IMVI melanoma
[17] = system: UO-31 renal
[18] = system: SF-268 CNS
[19] = system: SK-MEL-28 melanoma
[20] = system: A549 NSCLC
[21] = system: SN12C renal
[22] = system: NCI-H226 lung
[23] = system: SR leukemia
[24] = system: CAKI-1 renal
[25] = system: HT29 colon
[26] = system: SK-MEL-5 melanoma
[27] = system: HOP-62 NSCLC
[28] = system: IGROV1 ovarian
[29] = system: SF-295 CNS
[30] = system: SK-OV-3 ovarian
[31] = system: OVCAR-4 ovarian
[32] = system: M14 melanoma
[33] = system: DU-145 prostate
[34] = system: MDA-MB-435
[35] = system: PC-3 prostate
[36] = system: HOP-92 NSCLC
[37] = system: A498 renal
[38] = system: T-47D breast
[39] = system: EKVX NSCLC
[40] = system: MALME-3M melanoma
[41] = system: TK-10 renal
[42] = system: K-562 leukemia
[43] = system: NCI/ADR-RES ovarian
[44] = system: KM12 colon
[45] = system: RPMI-8226 leukemia
[46] = system: HCC-2998 colon
[47] = system: HL-60(TB) leukemia
[48] = system: UACC-62 melanoma
[49] = system: UACC-257 melanoma
[50] = system: U251 CNS
[51] = system: COLO 205 colon
[52] = system: HCT-116 colon
[53] = system: CCRF-CEM leukemia
[54] = system: SNB-75 CNS
[55] = system: MCF7 breast
[56] = system: OVCAR-5 ovarian
[57] = system: OVCAR-8 ovarian
[58] = system: SF-539 CNS
[59] = system: MDA-MB-468 breast

Question: Which GI50 [1] does the source give for `O=c1[nH]c2ccc(Cl)cc2cc1CSc1ccc(Nc2nccc(-c3ccc(Cl)cc3)n2)cc1` here?
Answer: 19.1 µM

Question: What about the TGI [1] of the same compound?
Answer: 37.1 µM

Question: What about the GI50 [2] of the same compound?
Answer: 13.5 µM

Question: And the TGI [2]?
Answer: > 100 µM

Question: And the GI50 [3]?
Answer: 20.1 µM

Question: And the TGI [3]?
Answer: 51.7 µM

Question: What about the GI50 [4] of the same compound?
Answer: 22 µM

Question: What about the TGI [4] of the same compound?
Answer: 56.1 µM

Question: What about the GI50 [5] of the same compound?
Answer: 15.3 µM

Question: And the TGI [5]?
Answer: 30 µM

Question: And the GI50 [6]?
Answer: 6.2 µM

Question: What about the TGI [6] of the same compound?
Answer: 25.5 µM

Question: And the GI50 [7]?
Answer: 12 µM

Question: And the TGI [7]?
Answer: 26.4 µM

Question: What about the GI50 [8] of the same compound?
Answer: 4.42 µM

Question: What about the TGI [8] of the same compound?
Answer: 20 µM

Question: And the GI50 [9]?
Answer: 15.8 µM

Question: What about the TGI [9] of the same compound?
Answer: 31.5 µM

Question: And the GI50 [10]?
Answer: 15.5 µM

Question: And the TGI [10]?
Answer: 31.8 µM

Question: And the GI50 [11]?
Answer: 6.64 µM

Question: And the TGI [11]?
Answer: 24.5 µM

Question: And the GI50 [12]?
Answer: 20 µM

Question: And the TGI [12]?
Answer: 43 µM

Question: What about the GI50 [13] of the same compound?
Answer: 12.4 µM

Question: And the TGI [13]?
Answer: 28 µM

Question: And the GI50 [14]?
Answer: 17.4 µM

Question: What about the TGI [14] of the same compound?
Answer: 34.3 µM

Question: What about the GI50 [15] of the same compound?
Answer: 17.3 µM

Question: And the TGI [15]?
Answer: 52 µM

Question: And the GI50 [16]?
Answer: 20.6 µM

Question: What about the TGI [16] of the same compound?
Answer: 60.9 µM

Question: What about the GI50 [17] of the same compound?
Answer: 29 µM

Question: What about the TGI [17] of the same compound?
Answer: > 100 µM

Question: What about the GI50 [18] of the same compound?
Answer: 15.3 µM

Question: What about the TGI [18] of the same compound?
Answer: 40.1 µM

Question: What about the GI50 [19] of the same compound?
Answer: 22.6 µM

Question: And the TGI [19]?
Answer: 72.3 µM

Question: And the GI50 [20]?
Answer: 16.9 µM

Question: And the TGI [20]?
Answer: 41.2 µM

Question: And the GI50 [21]?
Answer: > 100 µM

Question: What about the TGI [21] of the same compound?
Answer: > 100 µM

Question: What about the GI50 [22] of the same compound?
Answer: 16.5 µM

Question: And the TGI [22]?
Answer: 45.1 µM

Question: What about the GI50 [23] of the same compound?
Answer: 69.5 µM

Question: And the TGI [23]?
Answer: > 100 µM

Question: What about the GI50 [24] of the same compound?
Answer: 15.6 µM

Question: And the TGI [24]?
Answer: 38.4 µM

Question: What about the GI50 [25] of the same compound?
Answer: 13.8 µM

Question: What about the TGI [25] of the same compound?
Answer: > 100 µM

Question: And the GI50 [26]?
Answer: 25.5 µM

Question: And the TGI [26]?
Answer: 99.2 µM

Question: And the GI50 [27]?
Answer: 16.5 µM

Question: What about the TGI [27] of the same compound?
Answer: 31.7 µM

Question: And the GI50 [28]?
Answer: 22.7 µM

Question: And the TGI [28]?
Answer: 52.5 µM

Question: And the GI50 [29]?
Answer: 17.6 µM

Question: What about the TGI [29] of the same compound?
Answer: 36.9 µM

Question: What about the GI50 [30] of the same compound?
Answer: 18.7 µM

Question: And the TGI [30]?
Answer: 39 µM

Question: And the GI50 [31]?
Answer: 16.9 µM

Question: What about the TGI [31] of the same compound?
Answer: 51 µM

Question: What about the GI50 [32] of the same compound?
Answer: 19.1 µM

Question: And the TGI [32]?
Answer: 50.5 µM

Question: And the GI50 [33]?
Answer: 15.1 µM

Question: And the TGI [33]?
Answer: 61.7 µM

Question: What about the GI50 [34] of the same compound?
Answer: 15.3 µM

Question: What about the TGI [34] of the same compound?
Answer: 40.9 µM

Question: And the GI50 [35]?
Answer: 9.22 µM

Question: And the TGI [35]?
Answer: 27.8 µM

Question: What about the GI50 [36] of the same compound?
Answer: 15.9 µM

Question: And the TGI [36]?
Answer: 38.3 µM

Question: And the GI50 [37]?
Answer: 20 µM

Question: What about the TGI [37] of the same compound?
Answer: 43.7 µM

Question: And the GI50 [38]?
Answer: 29.6 µM

Question: And the TGI [38]?
Answer: > 100 µM

Question: What about the GI50 [39] of the same compound?
Answer: 28.1 µM

Question: And the TGI [39]?
Answer: > 100 µM

Question: And the GI50 [40]?
Answer: 19.1 µM

Question: What about the TGI [40] of the same compound?
Answer: 50.1 µM

Question: What about the GI50 [41] of the same compound?
Answer: 18.6 µM

Question: And the TGI [41]?
Answer: 36.2 µM

Question: What about the GI50 [42] of the same compound?
Answer: 15.8 µM

Question: What about the TGI [42] of the same compound?
Answer: > 100 µM

Question: What about the GI50 [43] of the same compound?
Answer: 14.8 µM

Question: And the TGI [43]?
Answer: 42 µM

Question: What about the GI50 [44] of the same compound?
Answer: 30.5 µM

Question: And the TGI [44]?
Answer: > 100 µM

Question: And the GI50 [45]?
Answer: 86.6 µM

Question: And the TGI [45]?
Answer: > 100 µM

Question: What about the GI50 [46] of the same compound?
Answer: 25.3 µM

Question: What about the TGI [46] of the same compound?
Answer: > 100 µM

Question: What about the GI50 [47] of the same compound?
Answer: 42.9 µM

Question: What about the TGI [47] of the same compound?
Answer: > 100 µM

Question: And the GI50 [48]?
Answer: 19.6 µM

Question: And the TGI [48]?
Answer: 45.4 µM

Question: What about the GI50 [49] of the same compound?
Answer: > 100 µM

Question: What about the TGI [49] of the same compound?
Answer: > 100 µM

Question: What about the GI50 [50] of the same compound?
Answer: 16.5 µM

Question: And the TGI [50]?
Answer: 36.1 µM

Question: And the GI50 [51]?
Answer: 40.5 µM

Question: What about the TGI [51] of the same compound?
Answer: > 100 µM

Question: What about the GI50 [52] of the same compound?
Answer: 10.6 µM

Question: And the TGI [52]?
Answer: 26.7 µM

Question: What about the GI50 [53] of the same compound?
Answer: 13.4 µM

Question: And the TGI [53]?
Answer: > 100 µM

Question: What about the GI50 [54] of the same compound?
Answer: 11.4 µM

Question: What about the TGI [54] of the same compound?
Answer: 29.7 µM

Question: What about the GI50 [55] of the same compound?
Answer: 5.65 µM

Question: And the TGI [55]?
Answer: 28.5 µM

Question: What about the GI50 [56] of the same compound?
Answer: 57.8 µM

Question: What about the TGI [56] of the same compound?
Answer: > 100 µM

Question: And the GI50 [57]?
Answer: 23.4 µM

Question: What about the TGI [57] of the same compound?
Answer: 72.6 µM

Question: What about the GI50 [58] of the same compound?
Answer: 15.1 µM

Question: And the TGI [58]?
Answer: 31.1 µM

Question: What about the GI50 [59] of the same compound?
Answer: 10.6 µM

Question: And the TGI [59]?
Answer: 25.3 µM
